Measured values published in PMC7551886, “Antitumour Effects of Astaxanthin and Adonixanthin on Glioblastoma” (Marine Drugs, 2020).

Key:
Akt = assay: Immunoblotting, phosphorylation of Akt in GL261; type: cell-based, mouse; conditions: GL261, 10 µM, 6 h post-treatment
Procedure: (§1) GL261 cell was seeded at 2.5 × 10^4 cells per well in 24-well plates with culture medium supplemented with 10% FBS. After 24 h of incubation, the medium was changed to DMEM containing 10% FBS and 0.1%DMSO PBS, 300 μM temozolomide, 10 μM astaxanthin, or 10 μM adonixanthin was added for 6 and 48 h. Cells were lysed in a special buffer (RIPA buffer R0278; Sigma-Aldrich, St. Louis, MO, USA) with a protease inhibitor cocktail (Sigma-Aldrich), phosphatase inhibitor cocktails 2 and 3 (Sigma-Aldrich), and sample buffer (Wako, Osaka, Japan). The protein concentration was determined by comparison with a known concentration of bovine serum albumin using the BCA Protein Assay Kit (Thermo Fisher Scientific). The amount of total protein was 2 μg. […] The band intensity was […] using an Immuno Star LD (Wako). Band intensity was measured using an LAS-4000 UV mini Luminescent Image Analyzer (Fujifilm, Tokyo Japan) and Multi Gauge Version 3.0 (Fujifilm). The phosphorylation of ERK1/2, Akt, and p38 MAPK was measured by normalizing against total ERK1/2, total Akt, and total p38 MAPK. […]

U251MG cells [1] = assay: Cell viability (CCK-8 assay) in U251MG; type: cell-based, human; conditions: treated for 96 h
Procedure: U251MG, GL261, or U87MG cells were seeded onto 96-well plates at a density of 2 × 10^3 cells/well with DMEM supplemented with 10% FBS and then incubated for 24 h, after which the culture medium was changed to DMEM containing 10% FBS. Then, astaxanthin, adonixanthin or temozolomide (Tokyo Chemical Industry Co., Ltd., Tokyo, Japan) were added to the culture. Cell proliferation was determined using the CCK-8 assay according to the manufacturer’s instructions (Dojindo, Kumamoto, Japan). After each incubation, 10 μL of CCK-8 solution were added to each well. Plates were incubated for 3 h for 37 °C, and the absorbance was read at 450 nm with a reference wavelength of 630 nm using a Varioscan Flash 2.4 microplate reader (Thermo Fisher Scientific, Waltham, MA, USA).

Bcl-2 = assay: Immunoblotting, Bcl-2 expression in GL261; type: cell-based, mouse; conditions: GL261, 10 µM, 48 h
Procedure: as §1, with “μg. Equal amounts of protein in sample buffer containing 10% 2-mercaptoethanol were subjected to sodium dodecyl sulphate polyacrylamide gel electrophoresis (SDS-PAGE) in 5-20% gradient gels (SuperSep Ace; Wako), and the separated proteins were transferred to polyvinylidene difluoride membrane (Immobilon-P; Merck Millipore Corporation, Bedford, MA, USA). After blocking for 30 min with Blocking One-P (Nacalai Tesque), we incubated the membranes with primary antibodies overnight at 4 °C.” for “μg.”

ERK1/2 = assay: Immunoblotting, phosphorylation of ERK1/2 in GL261; type: cell-based, mouse; conditions: GL261, 10 µM, 6 h post-treatment
Procedure: as §1

Fibronectin mRNA = assay: qRT-PCR of Fibronectin mRNA in GL261; type: cell-based, mouse; conditions: GL261, 10 µM, 48 h
Procedure: To evaluate the effect of astaxanthin and adonixanthin on the expression of Fibronectin mRNA expression, we performed quantitative real-time reverse transcription polymerase chain reaction (qRT-PCR) analysis. GL261 cell was seeded at 2.5 × 10^4 cells well in 24-well plates with culture medium supplemented with 10% FBS. After 24 h of incubation, the medium was changed to DMEM containing 10% FBS and 0.1% DMSO PBS, 300 μM temozolomide, 10 µM astaxanthin, or 10 µM adonixanthin was added for 48 h. After 48 h of treatment, RNA was isolated from GL261 cells using Nucleo Spin RNA II (Takara, Shiga, Japan). RNA concentrations were determined using NanoVue Plus (GE Healthcare Japan, Tokyo, Japan). Single-strand cDNAs were synthesized from the isolated RNAs via reverse transcription with a PrimeScript RT Reagent Kit (Perfect Real Time; Takara). Quantitative real-time RT-PCR was performed using TB Green Premix Ex Taq II (Tli RNaseH Plus; Takara) and a TP800 Thermal Cycler Dice Real Time System (Takara). All procedures were carried out in accordance with the manufacturer’s instructions. […] The results are expressed as relative gene expression levels normalized to that of β-actin.

U251MG cells [2] = assay: Wound healing (cell migration) assay in U251MG; type: cell-based, human; conditions: 10 µM, 48 h
Procedure: The cell migration assay was conducted as previously described. GL261 cells and U251 cells (2.0 × 10^4 cells per well) were plated in a 12-well plate (BD Biosciences, Tokyo, Japan) with culture medium supplemented with 10% FBS. After 24 h of incubation, the medium was changed to DMEM containing 1% FBS. After 6 h, wounds were scratched by a P1000 pipette tip and washed with phosphate-buffered saline (PBS) to eliminate cell debris. Then, fresh medium was added with 10 µM astaxanthin or adonixanthin. Pictures were taken at 48 h and these scratched areas were measured using an All-in-One Fluorescence Microscope (BZ-X710; Keyence, Osaka, Japan). The cell migration rate was measured the area of the wound before migration (S0) and after migration (S1) and calculated […]. The control group was then standardized to be 100%. Wound widths at 0 h were created within 1 to 1.5 mm and data were excluded if they were not suitable for that width.

| SMILES | phosphorylation of Akt (Akt) | concentration above which cell viability was suppressed (U251MG cells [1]) | expression of Bcl-2 vs. control (Bcl-2) | phosphorylation of ERK1/2 (ERK1/2) | mRNA level of fibronectin (Fibronectin mRNA) | suppression of cell migration (U251MG cells [2]) [%] |
| --- | --- | --- | --- | --- | --- | --- |
| CC1=C(/C=C/C(C)=C/C=C/C(C)=C/C=C/C=C(C)/C=C/C=C(C)/C=C/C2=C(C)C(=O)[C@@H](O)CC2(C)C)C(C)(C)C[C@H](O)C1 [Adonixanthin, adonixanthin] | decreased | > 0.1 µM | N.S. | decreased | decreased | 26.32 ± 5.14 |
| CC1=C(/C=C/C(C)=C/C=C/C(C)=C/C=C/C=C(C)/C=C/C=C(C)/C=C/C2=C(C)C(=O)[C@@H](O)CC2(C)C)C(C)(C)C[C@H](O)C1=O [Astaxanthin, astaxanthin] | decreased | more than 1 µM | N.S. | decreased | decreased | 21.15 ± 1.84 |
